Series [1] in a line: Cytotoxicity against human HepG2 cells assessed as cell viability at 50 uM incubated for 48 hrs by CCK8 assay relative to control. The class given is toxicity, cell-based. Conditions: read-out: Activity. A general note: Formazan colour is commonly taken as a measure of viable cells.
The subject of series [2] is Mus musculus. The experiment in a line: Protection against LPS-induced sepsis in C57BL/6J mouse model assessed as survival rate at 0.5 mg/kg, iv measured after 24 hrs relative to control. In kind it is functional.
Series [3] can be described thus: in vivo. The conditions noted are these: C57BL/6J, mouse, other tissue, ip, 5 mg/kg.
Description: Ratio of AUC (0 to 24 hrs)in C57BL/6J mouse liver to blood at 5 mg/kg, ip measured after 24 hrs by LC-MS/MS analysis
For series [4], the system named is Mus musculus. Briefly: Protection against LPS-induced sepsis in C57BL/6J mouse model assessed as survival rate at 30 mg/kg, iv measured after 48 hrs relative to control. The class given is functional.
Series [5] can be described thus: AUC (0 to 24 hrs) in Sprague-Dawley rat at 5 mg/kg, iv measured after 24 hrs. Conditions: in vivo. In kind it is ADME, organism-based.
The test system of series [6] is Mus musculus. Briefly: Anti-inflammatory activity in LPS-induced C57BL/6J mouse model of sepsis assessed as IL-6 in serum at 5 mg/kg, ip preadministered with compound for 24 hrs followed by LPS administration and measured after 3 hrs by ELISA (reference value: 17292 pg/ml). Conditions: time 27 hrs. The class given is functional.
Series [7] is described as follows: Cmax in C57BL/6J mouse blood at 5 mg/kg, ip measured after 24 hrs by LC-MS/MS analysis. The class given is ADME, organism-based.
Series [8] is described as follows: Cytotoxicity in HEK293T cells assessed as cell viability at 50 uM incubated for 48 hrs by CCK8 assay relative to control. The class given is toxicity, cell-based, HEK-293T. Conditions: human, read-out: Activity.
For series [9], the system named is Mus musculus. Briefly: Anti-inflammatory activity in LPS-induced C57BL/6J mouse model of sepsis assessed as TNF-alpha in liver at 5 mg/kg, ip preadministered with compound for 24 hrs followed by LPS administration and measured after 3 hrs by ELISA (reference value: 298 pg/ml). The class given is functional. Conditions: time 27 hrs.
The test system of series [10] is Mus musculus. Briefly: Protection against LPS-induced sepsis in C57BL/6J mouse model assessed as survival rate at 30 mg/kg, iv measured after 72 hrs relative to control. In kind it is functional.
The nature of series [11]: Cmax in Sprague-Dawley rat at 20 mg/kg, po measured after 24 hrs. The conditions noted are these: in vivo. In kind it is ADME, organism-based.
Series [12] relates to Mus musculus. Briefly: Anti-inflammatory activity in LPS-induced C57BL/6J mouse model of sepsis assessed as TNF-alpha in serum at 5 mg/kg, ip preadministered with compound for 24 hrs followed by LPS administration and measured after 3 hrs by ELISA (reference value: 282 pg/ml). In kind it is functional. The conditions noted are these: time 27 hrs.
Series [13] has as its system Mus musculus. The experiment in a line: Protection against LPS-induced sepsis in C57BL/6J mouse model at 0.05 mg/kg, iv measured after 72 hrs. The class given is functional, organism-based.
Series [14] can be described thus: AUC (0 to 24 hrs) in C57BL/6J mouse liver at 5 mg/kg, ip measured after 24 hrs by LC-MS/MS analysis. Conditions: in vivo. In kind it is ADME, organism-based.
Series [15] in a line: Half-life in Sprague-Dawley rat at 5 mg/kg, iv measured after 24 hrs. Conditions: in vivo. The class given is ADME, organism-based.

The source of these data is ChEMBL document CHEMBL5543072, “Discovery of a novel lead characterized by a stilbene-extended scaffold against sepsis as soluble epoxide hydrolase inhibitors” (Eur J Med Chem, 2024).

SMILES strings stand for the structures. Active and inactive are the calls of the source. No cut-off for these calls is given here.

As for `O=C(Cc1ccccn1)Nc1cccc(/C=C/c2ccc(NC(=O)NCC3CCOCC3)cc2)c1`, the viability at 48 h, 50 µM came to 46.5% in series [1] and 46.6% in series [8]. Also, in series [2], the survival at 0.5 mg/kg turned out to be 50%. Moreover, the Kp at 24 h in series [3] turned out to be 175. Also, the survival at 30 mg/kg in series [4] came to 50%; in series [10], 10%. In series [5], this compound yielded an AUC(0-t) at 24 h of 266 ng·h/mL. The Activity amounted to 15627 pg/mL in series [6], 193 pg/mL in series [9] and 242 pg/mL in series [12]. Also, the peak concentration (Cmax) turned out to be 330 ng/mL in series [7] and 28.2 ng/mL in series [11]. Further, the outcome in series [13] was inactive. The same compound gave an AUC in [14] of 21370 ng·h/g. In series [15], this compound gave a half-life of 24 min.

The AUC(0-t) is exposure summed from dosing to a finite time, without extrapolation to infinity. High values mean more exposure, low ones less exposure. One may read the Cmax as the peak of the concentration-time curve. For orientation: half-life means how long it takes for the measured level to halve. Low readings indicate fast loss, high ones slow loss.
